Data: patent publication US11214538B2, “Farnesoid X receptor agonists and uses thereof” (Metacrine, Inc., priority 2015, dated 2022)

How the values were obtained:
hFXR [1] = target: T1, hFXR (Homo sapiens, UniProt Q96RI1); test: In Vitro FXR Assay (TK), luciferase reporter in transfected CV-1 cells; format: cell-based; details: CV-1 cells transfected with hFXR, hRXR, TK-ECRE-luc; 18 hrs incubation; luminescence; compounds with a maximum efficacy of <25% of the Fexaramine control classified as '+'
T1 construct: expressed in transfected cells; host or cells: CV-1 cells
T1 sequence (Q96RI1 1-486): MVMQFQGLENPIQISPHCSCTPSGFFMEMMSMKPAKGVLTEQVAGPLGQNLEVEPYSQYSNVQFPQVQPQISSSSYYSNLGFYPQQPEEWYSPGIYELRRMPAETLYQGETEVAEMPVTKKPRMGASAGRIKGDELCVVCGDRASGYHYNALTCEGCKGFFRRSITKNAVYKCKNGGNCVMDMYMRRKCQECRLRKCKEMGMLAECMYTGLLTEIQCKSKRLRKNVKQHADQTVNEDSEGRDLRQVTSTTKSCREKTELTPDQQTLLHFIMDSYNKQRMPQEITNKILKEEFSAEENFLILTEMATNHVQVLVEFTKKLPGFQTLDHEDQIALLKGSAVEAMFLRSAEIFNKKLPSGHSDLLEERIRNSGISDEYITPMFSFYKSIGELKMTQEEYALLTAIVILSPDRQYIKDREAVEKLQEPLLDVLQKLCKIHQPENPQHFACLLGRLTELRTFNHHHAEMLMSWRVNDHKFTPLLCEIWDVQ
T1 sequence (P19793 1-462 partner): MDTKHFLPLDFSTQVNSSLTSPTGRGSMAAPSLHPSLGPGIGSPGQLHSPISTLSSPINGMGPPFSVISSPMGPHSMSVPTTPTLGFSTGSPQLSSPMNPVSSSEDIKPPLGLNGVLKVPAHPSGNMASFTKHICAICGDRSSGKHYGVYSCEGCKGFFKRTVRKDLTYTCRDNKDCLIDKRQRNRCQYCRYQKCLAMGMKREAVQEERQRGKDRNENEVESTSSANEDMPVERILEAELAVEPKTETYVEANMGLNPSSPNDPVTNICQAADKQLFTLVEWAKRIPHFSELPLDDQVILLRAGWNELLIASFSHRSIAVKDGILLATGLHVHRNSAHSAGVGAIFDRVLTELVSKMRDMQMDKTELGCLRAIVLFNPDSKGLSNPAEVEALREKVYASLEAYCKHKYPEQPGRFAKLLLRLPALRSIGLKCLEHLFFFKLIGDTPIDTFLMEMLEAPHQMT
Procedure: Example B-2: In Vitro FXR Assay (TK)
CV-1 cells were seeded at a density of 2,000,000 cells in a T175 flask with DMEM+10% charcoal double-stripped FBS and incubated at 37° C. in 5% CO2 for 18 h (O/N).
After 18 h of incubation, the medium in the T175 flask was changed with fresh DMEM+10% charcoal super-stripped serum. In a polypropylene tube, 2500 μL OptiMEM (Life Technologies, Cat #31985-062) was combined with expression plasmids for hFXR, hRXR, TK-ECRE-luc and pCMX-YFP. The tube was then briefly vortexed and incubated at room temperature for 5 minutes. Transfection reagent (X-tremeGENE HP from Roche, Cat #06 366 236 001) was added to the OptiMEM/plasmid mixture vortexed and incubated at room temperature for 20 minutes. Following incubation, the transfection reagent/DNA mixture complex was added to cells in the T175 flask and the cells were incubated at 37° C. in 5% CO2 for 18 h (O/N).
Compounds were serially diluted in DMSO and added to transfected CV-1 cells. The cells were then incubated for 18 hrs. The next day cells were lysed and examined for luminescence.

hFXR [2] = target: T1, hFXR; test: In Vitro FXR Assay (PGL3), luciferase reporter in transfected CV-1 cells; format: cell-based; details: CV-1 cells transfected with hFXR, hRXR, PGL3-ECRE*6-luc; 18 hrs incubation; luminescence
Procedure: Example B-1: In Vitro FXR Assay (PGL3)
CV-1 cells were seeded at a density of 2,000,000 cells in a T175 flask with DMEM+10% charcoal double-stripped FBS and incubated at 37° C. in a 5% CO2 for 18 h (O/N).
After 18 h of incubation, the medium in the T175 flask was changed with fresh DMEM+10% charcoal super-stripped serum.
To prepare the transfection reaction mixture, the transfection reagent (X-tremeGENE HP from Roche, Cat #06 366 236 001) was added in to a 1.5 mL microcentrifuge tube labelled “A” at a ratio of 1:3 (DNA in g: transfection reagent in μL). OptiMEM medium (Life Technologies, Cat #31985-062) was added accordingly to provide a total volume of 1 mL. The transfection reaction mixture was then briefly vortexed and incubated at room temperature for 5 minutes.
In a separate 1.5 mL microcentrifuge tube labelled “B”, 100 μL OptiMEM and plasmids XPD90Gal pCMXhFXRfl, pCMXhRXRfl+PGL3-ECRE*6-luc+CMX-YFP in the ratio 2 g: 2 g:18 g:3 g were added. This microcentrifuge tube “B” was then briefly vortexed and incubated at room temperature for 5 minutes.
The total volume in tube labelled “A” was then transferred in to tube labelled “B.” The mixture was then briefly vortexed and the transfection:DNA complex was then incubated for about 15-20 minutes at room temperature.
Following incubation, the transfection reagent/DNA mixture complex was then added to cells in the T175 flask and the cells were incubated at […] (O/N) at 37° C. in 5% CO2.
In a 96 well plate, a half logarithmic serial dilution was prepared. OptiMEM was used as the diluent. Using any of one of the compounds described herein, a compound stock solution of 10 mM was prepared. An initial 1:100 dilution was made into the first well for a final concentration of 100 μM. The final concentrations in the 96-well plate was prepared by using a multichannel pipette to transfer 5 μL of the diluted compound to 384-well plate in quadruplicate.
Cells in T175 flask were trypsinized and cells were resuspending in 40 mL phenol red free DMEM+10% charcoal super-stripped FBS. Typically, one T175 flask was sufficient to seed two 384 well plates. CV-1 cells were seeded at 45 μL cell suspension/well using a multichannel pipet or a 384 multidrop dispenser. The cells were then incubated for 18 hrs, overnight.
After removing the plates from the incubator, the medium was flicked out of plate and 384 well plate was turned upside down onto paper towel. The remaining medium was gently tapped out. 15 μL lysis buffer was then added to each well using a multichannel pipet or a 384 well multi-drop dispenser. After incubation for 10 minutes at room temperature on shaker, 30 μL Luciferase buffer was added to each well. Luminescence counts were taken immediately using the Perkin Elmer Envision.
The ability of the compounds disclosed herein to […] FXR activity was quantified and the respective EC50 value was determined. Fex=fexaramine.

EC50 (hFXR [1]) [µM]	Cmpd/Fex (ratio of the EC50 for the test compound relative to the EC50 of the Fexaramine control) (hFXR [2])	SMILES
3 to 10	+ (‘+’ means Cmpd/Fex >100)	CN(C)c1ccc(-c2ccc(CN(C(=O)C3CCCCC3)c3cccc(-c4ccccc4)c3)cc2)cc1 [Compound 18, N-([1,1′-Biphenyl]-3-yl)-N-((4′-(dimethylamino)-[1,1′-biphenyl]-4-yl)methyl)cyclohexanecarboxamide]
	+++ (‘+++’ means Cmpd/Fex <10)	COc1cc(-c2cccc(N(Cc3ccc(-c4ccc(N(C)C)cc4)cc3)C(=O)C3CCCCC3)c2)ccn1 [Compound 3, N-((4′-(Dimethylamino)-[1,1′-biphenyl]-4-yl)methyl)-N-(3-(2-methoxypyridin-4-yl)phenyl)cyclohexanecarboxamide]
3 to 10	++ (‘++’ means Cmpd/Fex >10 & <100)	C/C=C/c1cccc(N(Cc2ccc(-c3ccc(N(C)C)cc3)cc2)C(=O)C2CCCCC2)c1 [Compound 16, (E)-N-((4′-(Dimethylamino)-[1,1′-biphenyl]-4-yl)methyl)-N-(3-(prop-1-en-1-yl)phenyl)cyclohexanecarboxamide]
≤ 3	+ (‘+’ means Cmpd/Fex >100)	O=C(C1CCCCC1)N(Cc1ccc(-c2ccc(F)cc2)cc1)c1cccc(-c2ccccc2)c1 [Compound 15, N-([1,1′-Biphenyl]-3-yl)-N-((4′-fluoro-[1,1′-biphenyl]-4-yl)methyl)cyclohexanecarboxamide]
	++ (‘++’ means Cmpd/Fex >10 & <100)	C/C=C\c1cccc(N(Cc2ccc(-c3ccc(N(C)C)cc3)cc2)C(=O)C2CCCCC2)c1 [Compound 17, (Z)-N-((4′-(Dimethylamino)-[1,1′-biphenyl]-4-yl)methyl)-N-(3-(prop-1-en-1-yl)phenyl)cyclohexanecarboxamide]
	++ (‘++’ means Cmpd/Fex >10 & <100)	COc1cccc(-c2cccc(N(Cc3ccc(-c4ccc(N(C)C)cc4)cc3)C(=O)C3CCCCC3)c2)c1 [Compound 2, N-((4′-(Dimethylamino)-[1,1′-biphenyl]-4-yl)methyl)-N-(3′-methoxy-[1,1′-biphenyl]-3-yl)cyclohexanecarboxamide]
	+ (‘+’ means Cmpd/Fex >100)	CN(C)c1ccc(-c2ccc(CN(C(=O)C3CCCCC3)c3cccc(Oc4ccccc4)c3)cc2)cc1 [Compound 19, N-((4′-(Dimethylamino)-[1,1′-biphenyl]-4-yl)methyl)-N-(3-phenoxyphenyl)cyclohexanecarboxamide]
	+ (‘+’ means Cmpd/Fex >100)	COC(=O)NCc1cccc(N(Cc2ccc(-c3ccc(N(C)C)cc3)cc2)C(=O)C2CCCCC2)c1 [Compound 11, Methyl 3-(N-((4′-(dimethylamino)-[1,1′-biphenyl]-4-yl)methyl)cyclohexanecarboxamido)benzylcarbamate]

The next lines start with the molecule.

SMILES	EC50 (hFXR [1]) [µM]	Cmpd/Fex (ratio of the EC50 for the test compound relative to the EC50 of the Fexaramine control) (hFXR [2])
CCC/C=C/c1cccc(N(Cc2ccc(-c3ccc(N(C)C)cc3)cc2)C(=O)C2CCCCC2)c1 [Compound 7, (E)-N-((4′-(dimethylamino)-[1,1′-biphenyl]-4-yl)methyl)-N-(3-(pent-1-en-1-yl)phenyl)cyclohexanecarboxamide]	3 to 10	++ (‘++’ means Cmpd/Fex >10 & <100)
COC(=O)CN(C)c1cccc(N(Cc2ccc(-c3ccc(N(C)C)cc3)cc2)C(=O)C2CCCCC2)c1 [Compound 10, Methyl 2-((3-(N-((4′-(dimethylamino)-[1,1′-biphenyl]-4-yl)methyl)cyclohexanecarboxamido)phenyl)(methyl)amino)acetate]		+ (‘+’ means Cmpd/Fex >100)
CC(C)CNc1cccc(N(Cc2ccc(-c3ccc(N(C)C)cc3)cc2)C(=O)C2CCCCC2)c1 [Compound 6, N-((4′-(Dimethylamino)-[1,1′-biphenyl]-4-yl)methyl)-N-(3-(isobutylamino)phenyl) cyclohexanecarboxamide]		+ (‘+’ means Cmpd/Fex >100)
CN(C)CCNc1cccc(N(Cc2ccc(-c3ccc(N(C)C)cc3)cc2)C(=O)C2CCCCC2)c1 [Compound 5, N-((4′-(Dimethylamino)-[1,1′-biphenyl]-4-yl)methyl)-N-(3-((2-(dimethylamino)ethyl)amino)phenyl) cyclohexanecarboxamide]		+ (‘+’ means Cmpd/Fex >100)
CN(C)c1ccc(-c2ccc(CN(C(=O)C3CCCCC3)c3cccc(/C=C/c4ncco4)c3)cc2)cc1 [Compound 14, (E)-N-((4′-(Dimethylamino)-[1,1′-biphenyl]-4-yl)methyl)-N-(3-(2-(oxazol-2-yl)vinyl)phenyl)cyclohexanecarboxamide]	≤ 3	+++ (‘+++’ means Cmpd/Fex <10)
CNC(=O)/C=C/c1cccc(N(Cc2ccc(-c3ccc(N(C)C)cc3)cc2)C(=O)C2CCCCC2)c1 [Compound 12, (E)-N-((4′-(Dimethylamino)-[1,1′-biphenyl]-4-yl)methyl)-N-(3-(3-(methylamino)-3-oxoprop-1-en-1-yl)phenyl)cyclohexanecarboxamide]		++ (‘++’ means Cmpd/Fex >10 & <100)
CN(C)c1ccc(-c2ccc(CN(C(=O)C3CCCCC3)c3cccc(CN4CCCC4=O)c3)cc2)cc1 [Compound 8, N-((4′-(Dimethylamino)-[1,1′-biphenyl]-4-yl)methyl)-N-(3-((2-oxopyrrolidin-1-yl)methyl)phenyl)cyclohexanecarboxamide]		+ (‘+’ means Cmpd/Fex >100)
